# Biological target: human PRMT5/MEP50 (Homo sapiens (Human), UniProt O14744)
# Assay: PRMT5 chemiluminescent assay
# Type: biochemical
# Conditions: human PRMT5/MEP50 expressed in HEK293 cells; biotinylated histone peptides; Histone H4 monomethyl R3 antibody; chemiluminescent readout
# Procedure: A PRMT5 chemiluminescent assay was used to measure the IC50 activity of PRMT5 of the compounds of Examples 1A to 7 above. Biotinylated histone peptides were synthesized and attached to 384-well plates. Compound serial dilutions were performed and added to the assay plate. Histone H4 monomethyl R3 antibody was obtained from Abcam. A master mix for each well was prepared and human PRMT5/MEP50 (expressed in HEK293 cells) diluted in assay buffer to a concentration of 5 ng/μL. The reaction was incubated and slowly rotated for 60 minutes at the point of PRMT5/MEP50 addition. The supernatant from the wells was removed and blocking buffer was added to each well and rotated for 10 minutes. The primary antibody was diluted and added to every well for 60 minutes, before it was removed and the wells washed. The horse raddish peroxidase (HRP)-coupled secondary antibody was diluted and added to each well with an incubation time of 30 minutes. The HRP chemiluminescent substrate was added to every well. The plate was read on a Flourstar Omega BMG Labtech instrument (Ortenberg, Germany) and the analysis of IC50 was performed using the Flourstar Omega BMG Labtech software.
# human PRMT5/MEP50, sequence (O14744 whole entry): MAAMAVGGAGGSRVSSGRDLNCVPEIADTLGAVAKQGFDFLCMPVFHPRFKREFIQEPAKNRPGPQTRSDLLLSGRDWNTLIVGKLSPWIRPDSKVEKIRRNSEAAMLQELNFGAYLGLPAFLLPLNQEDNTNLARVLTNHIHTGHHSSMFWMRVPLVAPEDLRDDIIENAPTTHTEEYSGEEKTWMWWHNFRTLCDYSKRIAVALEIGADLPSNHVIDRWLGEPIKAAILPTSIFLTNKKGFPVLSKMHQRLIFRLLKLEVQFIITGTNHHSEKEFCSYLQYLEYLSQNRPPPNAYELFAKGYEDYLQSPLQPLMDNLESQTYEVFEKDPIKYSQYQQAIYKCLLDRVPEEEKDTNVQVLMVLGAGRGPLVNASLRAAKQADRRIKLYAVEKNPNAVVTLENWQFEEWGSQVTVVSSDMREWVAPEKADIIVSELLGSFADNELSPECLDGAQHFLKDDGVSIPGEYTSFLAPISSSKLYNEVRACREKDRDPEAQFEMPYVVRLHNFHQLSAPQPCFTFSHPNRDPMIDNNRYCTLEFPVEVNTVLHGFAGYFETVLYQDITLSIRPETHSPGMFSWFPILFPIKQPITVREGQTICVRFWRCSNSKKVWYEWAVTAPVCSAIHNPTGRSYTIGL
# human PRMT5/MEP50, sequence (Q9BQA1 whole entry partner): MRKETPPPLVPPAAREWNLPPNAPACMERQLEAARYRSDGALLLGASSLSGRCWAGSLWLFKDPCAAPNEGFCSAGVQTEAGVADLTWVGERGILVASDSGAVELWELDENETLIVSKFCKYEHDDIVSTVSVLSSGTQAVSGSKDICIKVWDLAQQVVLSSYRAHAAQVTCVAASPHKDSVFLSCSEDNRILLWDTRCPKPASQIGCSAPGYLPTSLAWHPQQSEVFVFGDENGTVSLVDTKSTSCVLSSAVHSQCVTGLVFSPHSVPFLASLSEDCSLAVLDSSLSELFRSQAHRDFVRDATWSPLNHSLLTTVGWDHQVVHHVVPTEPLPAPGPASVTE
row,SMILES,IC50
1,"O=C(NC[C@H](O)CN1CCc2ccccc2C1)N1CCC[C@@H](c2ccccc2)C1 (single isomer, unassigned) [Example 5B, (S)-N-((S)-3-(3,4-dihydroisoquinolin-2(1H)-yl)-2-hydroxypropyl)-3-phenylpiperidine-1-carboxamide or (R)-N-((S)-3-(3,4-dihydroisoquinolin-2(1H)-yl)-2-hydroxypropyl)-3-phenylpiperidine-1-carboxamide]",599 nM
2,"O=C(NC[C@H](O)CN1CCc2ccccc2C1)N1CCCN(S(=O)(=O)c2ccccc2)CC1 [Example 1BM, (S)-N-(3-(3,4-dihydroisoquinolin-2(1H)-yl)-2-hydroxypropyl)-4-(phenylsulfonyl)-1,4-diazepane-1-carboxamide]",1280 nM
3,"O=C(NCC(O)CN1CCc2ccccc2C1)N1CC(C(=O)N2C3CCC2COC3)C1 (centres unmarked) [Example 1X, 3-(3-oxa-8-azabicyclo[3.2.1]octane-8-carbonyl)-N-(3-(3,4-dihydroisoquinolin-2(1H)-yl)-2-hydroxypropyl)azetidine-1-carboxamide]",376 nM
4,"O=C(NC[C@@H](O)CN1CCc2ccccc2C1)N1CCCc2ccccc21 [Example 1AK, (R)-N-(3-(3,4-dihydroisoquinolin-2(1H)-yl)-2-hydroxypropyl)-3,4-dihydroquinoline-1(2H)-carboxamide]",5980 nM
5,"O=C(NC[C@H](O)CN1CCc2ccccc2C1)N1CCCC(N2CCN(Cc3ccccc3)CC2)C1 (stereo partly drawn) [Example 1CH, 3-(4-benzylpiperazin-1-yl)-N-((S)-3-(3,4-dihydroisoquinolin-2(1H)-yl)-2-hydroxypropyl)piperidine-1-carboxamide]",1920 nM
6,"O=C(NCC(O)CN1CCc2ccccc2C1)N1CCCCc2ccccc21 (centres unmarked) [Example 1J, N-[2-hydroxy-3-(1,2,3,4-tetrahydroisoquinolin-2-yl)propyl]-2,3,4,5-tetrahydro-1H-1-benzazepine-1-carboxamide]",320 nM
7,"O=C(NCC(O)CN1CCc2ccccc2C1)N1CCCN(c2ccccc2)CC1 (centres unmarked) [Example 1S, N-(3-(3,4-dihydroisoquinolin-2(1H)-yl)-2-hydroxypropyl)-4-phenyl-1,4-diazepane-1-carboxamide]",95 nM
8,"O=C(NC[C@H](O)CN1CCc2ccccc2C1)N1CCC[C@H](c2ccccc2)C1 [Example 1AO, (R)-N-((S)-3-(3,4-dihydroisoquinolin-2(1H)-yl)-2-hydroxypropyl)-3-phenylpiperidine-1-carboxamide]",9 nM
9,"O=C(NCC(O)CN1CCc2ccccc2C1)N1CCN(c2ccccc2)CC1 (centres unmarked) [Example 1C, N-[2-hydroxy-3-(1,2,3,4-tetrahydroisoquinolin-2-yl)propyl]-4-phenylpiperazine-1-carboxamide]",1240 nM
10,"O=C(NC[C@H](O)CN1CCc2ccccc2C1)N1CCCN(C(=O)c2cccs2)CC1 [Example 1AW, (S)-N-(3-(3,4-dihydroisoquinolin-2(1H)-yl)-2-hydroxypropyl)-4-(thiophene-2-carbonyl)-1,4-diazepane-1-carboxamide]",7020 nM
11,"O=C(NC[C@H](O)CN1CCc2ccccc2C1)N1CCC(c2ccccn2)C1 (stereo partly drawn) [Example 1BA, N-((S)-3-(3,4-dihydroisoquinolin-2(1H)-yl)-2-hydroxypropyl)-3-(pyridin-2-yl)pyrrolidine-1-carboxamide]",97 nM
12,"O=C(NC[C@H](O)CN1CCc2ccccc2C1)N1CCC(C(=O)N2C3CCC2COC3)CC1 [Example 1AZ, 4-(3-oxa-8-azabicyclo[3.2.1]octane-8-carbonyl)-N-((S)-3-(3,4-dihydroisoquinolin-2(1H)-yl)-2-hydroxypropyl)piperidine-1-carboxamide]",159 nM
13,"O=C(NCC(O)CN1CCc2ccccc2C1)N1CCC(Oc2ccccc2)CC1 (centres unmarked) [Example 1G, N-[2-hydroxy-3-(1,2,3,4-tetrahydroisoquinolin-2-yl)propyl]-4-phenoxypiperidine-1-carboxamide]",568 nM
14,"CN(C)C(=O)C1CCN(C(=O)NC[C@H](O)CN2CCc3ccccc3C2)CC1 [Example 1AX, (S)-N^1-(3-(3,4-dihydroisoquinolin-2(1H)-yl)-2-hydroxypropyl)-N^4,N^4-dimethylpiperidine-1,4-dicarboxamide]",588 nM
15,"O=C(OC[C@H](O)CN1CCc2ccccc2C1)N1CCC(C(=O)N2C3CCC2COC3)CC1 [Example 4Q, (R)-3-(3,4-dihydroisoquinolin-2(1H)-yl)-2-hydroxypropyl 4-(3-oxa-8-azabicyclo[3.2.1]octane-8-carbonyl)piperidine-1-carboxylate]",160 nM
16,"O=C(NC[C@H](O)CN1CCc2ccccc2C1)N1CCCSC(c2ccccc2)C1 (stereo partly drawn) [Example 1BN, N-((S)-3-(3,4-dihydroisoquinolin-2(1H)-yl)-2-hydroxypropyl)-2-phenyl-1,4-thiazepane-4-carboxamide]",104 nM
17,"O=C(NC[C@@H](O)CN1CCc2ccccc2C1)N1CCC[C@@H](c2ccccc2)C1 [Example 1AI, (S)-N-((R)-3-(3,4-dihydroisoquinolin-2(1H)-yl)-2-hydroxypropyl)-3-phenylpiperidine-1-carboxamide]",3220 nM
18,"O=C(NC[C@H](O)CN1CCc2ccccc2C1)N1CC[C@H](c2ccccc2)C1 [Example 1CJ, (R)-N-((S)-3-(3,4-dihydroisoquinolin-2(1H)-yl)-2-hydroxypropyl)-3-phenylpyrrolidine-1-carboxamide]",58 nM

# Next, values leading:
row,IC50,SMILES
1,8830 nM,"O=C(OCC(O)CN1CCc2ccccc2C1)N1CCCC(O)C1 (centres unmarked) [Example 4I, 3-(3,4-dihydroisoquinolin-2(1H)-yl)-2-hydroxypropyl 3-hydroxypiperidine-1-carboxylate]"
2,213000 nM,"O=C(OCC(O)CN1CCc2ccccc2C1)N1CCS(=O)(=O)CC1 (centres unmarked) [Example 4N, 3-(3,4-dihydroisoquinolin-2(1H)-yl)-2-hydroxypropyl thiomorpholine-4-carboxylate 1,1-dioxide]"
3,10800 nM,"COC(=O)N1CCCN(C(=O)OCC(O)CN2CCc3ccccc3C2)CC1 (centres unmarked) [Example 4W, 1-(3-(3,4-dihydroisoquinolin-2(1H)-yl)-2-hydroxypropyl) 4-methyl 1,4-diazepane-1,4-dicarboxylate]"
4,20 nM,"O=C(OC[C@H](O)CN1CCc2ccccc2C1)N1CC[C@@H](c2ccccc2)C1 [Example 4K, (R)-3-(3,4-dihydroisoquinolin-2(1H)-yl)-2-hydroxypropyl (S)-3-phenylpyrrolidine-1-carboxylate]"
5,1010 nM,"O=C(OCC(O)CN1CCc2ccsc2C1)N1CCc2ccccc2C1 (centres unmarked) [Example 4AB, 3-(4,7-dihydrothieno[2,3-c]pyridin-6(5H)-yl)-2-hydroxypropyl 3,4-dihydroisoquinoline-2(1H)-carboxylate]"
6,173 nM,"O=C(OCC(O)CN1CCc2ccccc2C1)N1CCC(Cc2ccccc2)CC1 (centres unmarked) [Example 4D, 3-(3,4-dihydroisoquinolin-2(1H)-yl)-2-hydroxypropyl 4-benzylpiperidine-1-carboxylate]"
7,1860 nM,"O=C(OCC(O)CN1CCc2ccccc2C1)N1CC(C(=O)N2CCOCC2)C1 (centres unmarked) [Example 4T, 3-(3,4-dihydroisoquinolin-2(1H)-yl)-2-hydroxypropyl 3-(morpholine-4-carbonyl)azetidine-1-carboxylate]"
8,539 nM,"O=C(OC[C@@H](O)CN1CCc2ccccc2C1)N1CCc2ccccc2C1 [Example 4H, (S)-3-(3,4-dihydroisoquinolin-2(1H)-yl)-2-hydroxypropyl 3,4-dihydroisoquinoline-2(1H)-carboxylate]"
